The text below walks through data of PMC8940841, “A metabolically stable PET tracer for imaging synaptic vesicle protein 2A: synthesis and preclinical characterization of [^18F]SDM-16” (European Journal of Nuclear Medicine and Molecular Imaging, 2021).

Read-outs that look alike come from different tables or passages of the source.

Series [1] addresses T1, human SV2A (Homo sapiens, UniProt Q7L0J3). Put plainly: biochemical. As to the method: Competition binding assays were performed twice independently using separate assay materials, with 4 technical replicates from each independent assay. […] Duplicate samples of human frontal cortex gray matter were homogenized in PBS buffer (10 mg/mL) for storage at − 80 °C and were diluted to a stock concentration of 4 mg/mL in PBS on the day of the assays. […] Working stocks of brain homogenate (100 µL; final concentration of 2 mg/mL), blocking ligands (20 µL), and radioligand (80 µL; final concentration 2.5 nM) were combined in quadruplicate wells of 96-well plates, sealed, and incubated at room temperature for 90 min on an orbital shaker set to 250 RPM. Reaction plates were filtered, rapidly washed with cold PBS, and dried. Forty microliters of Microscint-20 scintillation cocktail (Perkin-Elmer) was added to each well, and the plate was counted using a Microbeta2 plate reader (Perkin-Elmer). GraphPad Prism was used for curve fitting using the one-site Ki model.

Series [2] addresses T1, human SV2A. Further details: Duplicate samples of human frontal cortex gray matter were homogenized in PBS buffer; from tissue; host or cells: human frontal cortex gray matter homogenate. The settings on record: other SV2A ligands; read-out: Ki; cited from earlier work.
Series [3] can be described thus: Measurement of lipophilicity (octanol / PBS pH 7.4). It is filed as physicochemical. Particulars: octanol/PBS pH 7.4. On the procedure:
The logP of [^18F]SDM-16 was determined by a method modified from previously published procedures. Briefly, an aliquot of […] (10 µCi) of the radioligand was added to a 2-mL microtube containing 0.8 mL of octanol and 0.8 mL of 1 × phosphate buffered saline (1 × PBS, pH 7.4). The mixture was vortexed for 30 s and then centrifuged at 2000 g for 2 min. A subsample of the octanol (0.1 mL) and 1 × PBS (0.5 mL) layers was evaluated with a gamma counter. The major portion of the octanol layer (0.5 mL) was diluted with another 0.3 mL of octanol, mixed with a fresh portion of 0.8 mL of PBS, vortexed, centrifuged, and analyzed as described above. This process was repeated until consistent log P values were obtained, with five consecutive equilibration procedures being performed for each logP measurement. Four separate measurements were performed for [^18F]SDM-16 on different days.

The nature of series [4]: Plasma free fraction (fp) by ultrafiltration. It is filed as in vitro ADME, rhesus monkey. Particulars: monkey, plasma (separated from spiked whole blood). On the procedure: The unbound fraction of [^18F]SDM-16 in plasma (fp) of rhesus monkey was measured in triplicate using the ultrafiltration method. Briefly, [^18F]SDM-16 solution was added to 3 mL of whole blood. After incubation at ambient temperature for 5 min, the blood sample was centrifuged at 3900 rpm for 5 min. A sample of the supernatant plasma (0.3 mL) was loaded onto the reservoir of a Centrifree® Ultrafiltration device (Merck Millipore Ltd. Tullagreen, Carrigtwohill, Co. Cork, IRELAND) in triplicate and centrifuged at 1228 g for 20 min. The fp value was calculated as the ratio of radioactivity in the filtrate to that in the plasma.

The nature of series [5]: Plasma radiometabolite analysis during PET scans. The settings on record: 30 min p.i. It is filed as in vivo, rhesus monkeys. As to the method:
Arterial blood samples were collected during the PET scans to measure the radioactivity in plasma for generation of the metabolite-corrected arterial plasma input function. Plasma radiometabolite analysis was performed using the column-switching method, following a published protocol. Briefly, arterial blood samples were collected at 3-, 8-, 15-, 30-, 60-, 90-, 120-, and 180-min post-injection (p. i.), treated with urea (8 M), filtered, and injected onto a self-packed short column (4.6 × 19 mm) eluting with 1% MeCN in water at a flow rate of 2 mL/min. The sample was then back flushed onto a Gemini-NX column (5 μm, 4.6 mm × 250 mm) eluting with 40% MeCN/60% 0.1 M ammonium formate (pH 6.4) at a flow rate of 1.2 mL/min. The eluent was fraction-collected using an automated spectrum chromatography CF-1 fraction collector. Activity in the whole blood, plasma, filtrated plasma-urea mix, filters, and HPLC fractions were counted with automatic gamma well-counter (Wizard 2, PerkinElmer). The sample recovery rate, extraction efficiency, and HPLC fraction recovery were monitored. The unmetabolized [^18F]SDM-16 parent fraction was determined as the ratio of the sum of radioactivity in fractions containing the parent compound to the total amount of radioactivity collected and fitted with inverted Gamma4 approaches.
[^18F]SDM-16 had higher metabolite-corrected plasma SUV than the other SV2A radiotracers, indicating slower plasma clearance and higher metabolic stability (Fig. 2a). Whole-blood and plasma-input functions were highly consistent between the two animals, with a stable plasma to whole-blood ratio of 0.93 ± 0.13 over the entire 180-min acquisition period (Fig. S1).

Series [6] has as its system SV2A. The settings on record: 1TC, cited from earlier work.
Series [7] concerns the target SV2A (Macaca mulatta, UniProt H9EQH8). The settings on record: previously determined; cited from earlier work.
Series [8] can be described thus: Brain PET imaging with 1TC kinetic modeling. The settings on record: rhesus monkey.
Description: (§1) A total of 10 PET imaging experiments with [^18F]SDM-16 were performed in rhesus monkeys (Macaca mulatta) according to a protocol approved by the Yale University Institutional Animal Care and Use Committee (IACUC). Four monkeys were studied. […] Body temperature was maintained by a water-jacket heating pad. The animal was attached to a physiological monitor, and vital signs (heart rate, blood pressure, respirations, SPO2, EKG, ETCO2, and body temperature) were continuously monitored. A venous line was inserted in one limb for administration of radiotracer, displacement, and blocking drugs. A catheter was placed in the femoral artery in the other limb for blood sampling. Dynamic PET brain scans were performed on a Focus 220 system (Siemens Medical Solutions, Knoxville, TN, USA) with a reconstructed image resolution of approximately 1.5 mm. After a 9-min transmission scan, the radioligand was injected i.v. over 3 min. by an infusion pump. Dynamic PET scans were performed for 3 h (baseline and blocking scans) or 4 h (displacement scan).
(§2) PET images were reconstructed with built-in corrections for attenuation, normalization, scatter, randoms, and deadtime. PET brain images were registered to the animal’s MR image, which was subsequently registered to a brain atlas to define the regions of interest. Dynamic images were reconstructed using a Fourier rebinning and filtered back projection algorithm. A rhesus monkey brain atlas was used for generation of regions of interest (ROIs) and time − activity curves (TACs) for the following ROIs: amygdala, brain stem, caudate nucleus, centrum semiovale (CS), cerebellum, cingulate cortex, frontal cortex, globus pallidus, hippocampus, insula, nucleus accumbens, occipital cortex, pons, putamen, substantia nigra, temporal cortex, and thalamus.
(§3) Volume of distribution (VT, mL·cm^−3) values and the first-order kinetic rate constants of tracer (K1) were derived through 1-tissue (1T) compartment kinetic modeling with the metabolite-corrected arterial plasma input function, which was calculated as the product of the fitted total plasma curve and the parent radiotracer fraction curve. Nondisplaceable volume of distribution (VND) and SV2A occupancy by LEV was calculated using the Lassen plot [32]. Nondisplaceable binding potential (BPND) values were calculated from VT values using CS as reference region, or the VND derived from the blocking study, i.e., BPND = (VT, ROI − VT, CS)/ VT, CS or BPND = (VT/VND) -1.
For series [9], the system named is SV2A. The series can be described thus: Brain PET imaging with 1TC kinetic modeling.
Description: as §1, §2, §3

T1 sequence (Q7L0J3 whole entry): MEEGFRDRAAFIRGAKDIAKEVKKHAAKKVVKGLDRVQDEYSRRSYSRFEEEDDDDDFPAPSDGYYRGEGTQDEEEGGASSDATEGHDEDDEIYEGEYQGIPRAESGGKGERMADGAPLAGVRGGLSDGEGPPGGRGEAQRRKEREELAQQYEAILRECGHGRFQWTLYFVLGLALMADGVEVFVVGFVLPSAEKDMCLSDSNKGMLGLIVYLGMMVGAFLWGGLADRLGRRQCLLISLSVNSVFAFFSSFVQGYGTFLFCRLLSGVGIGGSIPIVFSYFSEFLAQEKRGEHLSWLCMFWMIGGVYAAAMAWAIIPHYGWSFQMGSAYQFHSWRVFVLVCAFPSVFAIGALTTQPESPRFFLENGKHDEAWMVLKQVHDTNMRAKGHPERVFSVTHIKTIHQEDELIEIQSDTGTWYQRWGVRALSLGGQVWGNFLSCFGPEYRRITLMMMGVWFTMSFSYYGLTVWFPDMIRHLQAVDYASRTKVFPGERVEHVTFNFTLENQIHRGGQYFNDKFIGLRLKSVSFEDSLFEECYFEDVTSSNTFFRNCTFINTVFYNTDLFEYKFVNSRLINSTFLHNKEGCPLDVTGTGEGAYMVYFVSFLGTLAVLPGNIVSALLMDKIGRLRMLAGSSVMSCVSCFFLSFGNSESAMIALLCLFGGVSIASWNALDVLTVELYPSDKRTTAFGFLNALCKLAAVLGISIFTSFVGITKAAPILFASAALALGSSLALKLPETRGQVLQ
Sequence of SV2A (Macaca mulatta, UniProt H9EQH8) (H9EQH8 1-742): as the sequence (Q7L0J3 whole entry) above, with G64S, I572V counted along it

As usually defined, the Ki is the dissociation constant of the complex between target and ligand, obtained from inhibition or displacement. Molecule `Cc1nccn1CN1CC(c2cc(F)cc(F)c2)CC1=O` (racemic) [Rac SDM-16, 4-(3,5-difluorophenyl)-1-((2-methyl-1H-imidazol-1-yl)methyl)pyrrolidin-2-one] gave a Ki at human SV2A [1] of 3.7 nM.
On to `Cc1nccn1CN1C[C@H](c2cc(F)cc(F)c2)CC1=O` [(S)-SDM-16], for which the inhibitory constant (Ki) at human SV2A [1] ([^3H]UCB-J, human frontal cortex homogenate) worked out at 25.5 nM.
With `Cc1cnccc1CN1C[C@@H](c2cc(F)cc(F)c2)CC1=O` [SynVesT-1], the Ki at human SV2A [2] was 3.1 nM.
In the case of `Cc1cnccc1CN1C[C@@H](c2cc(F)c(F)c(F)c2)CC1=O` [UCB-J], at human SV2A [2], the inhibition constant Ki is 2.6 nM.
One may read the logP as a log measure of how a compound divides between an organic and an aqueous phase. Read a high logP as higher lipophilicity. As usually defined, the fraction unbound is free concentration divided by total concentration. The low end stands for little free substance, the high end for much free substance. `[11CH3]c1cnccc1CN1C[C@@H](c2cc(F)c(F)c(F)c2)CC1=O` [[^11C]UCB-J] came in with a log partition coefficient (logP) in series [3] of 2.46. The same molecule had a fraction unbound at 5 min in series [4] of 0.46. Also, in series [5], the “parent fraction in plasma” value is 40 ± 6%. Also, the “VT (baseline)” value was 24.4 ± 2.0 mL/cm^3 with SV2A [6] (Amygdala); 23.5 ± 2.8 mL/cm^3 with SV2A [6] (Brainstem); 44.8 ± 4.6 mL/cm^3 in the series with SV2A [6] (Caudate); 13.6 ± 2.9 mL/cm^3 in the series with SV2A [6] (Centrum semiovale); 39.5 ± 5.8 mL/cm^3 in the series with SV2A [6] (Cerebellum); 55.6 ± 10.0 mL/cm^3 in the series on SV2A [6] (Cingulate cortex). The “VT (baseline)” value in the series with SV2A [6] (Frontal cortex) is listed as 55.4 ± 8.2 mL/cm^3; in the series with SV2A [6] (Globus pallidus), 27.9 ± 3.0 mL/cm^3; with SV2A [6] (Hippocampus), 34.4 ± 2.8 mL/cm^3; in the series on SV2A [6] (Insular cortex) it was 54.6 ± 6.7 mL/cm^3; with SV2A [6] (Nucleus accumbens), 53.9 ± 9.2 mL/cm^3; with SV2A [6] (Occipital cortex), 52.9 ± 7.0 mL/cm^3. Besides, the results for the “VT (baseline)” value in the series with SV2A [6] (Putamen), in the series on SV2A [6] (Temporal cortex) and with SV2A [6] (Thalamus) were 45.2 ± 3.0 mL/cm^3, 50.4 ± 6.9 mL/cm^3 and 40.3 ± 6.4 mL/cm^3, respectively. For the same molecule, the VND at SV2A [7] is recorded as 6.27 mL/cm^3. This molecule displayed a fraction unbound in series [8] (brain tissue, intravenous) of 0.073. The “BPND, VND method” value is recorded as 2.77 ± 0.06 in the series with SV2A [9] (Amygdala); 6.84 ± 0.18 in the series with SV2A [9] (Anterior cingulate); 2.61 ± 0.44 with SV2A [9] (Brainstem); 5.78 ± 0.43 in the series on SV2A [9] (Caudate); 4.43 ± 0.83 in the series with SV2A [9] (Cerebellum); 7.37 ± 1.18 in the series with SV2A [9] (Cingulate cortex). In addition, the “BPND, VND method” value in the series on SV2A [9] (Frontal cortex) came to 7.28 ± 1.00; in the series on SV2A [9] (Globus pallidus), 3.31 ± 0.38; with SV2A [9] (Hippocampus), 4.47 ± 0.14; in the series on SV2A [9] (Insular cortex) it was 7.24 ± 0.73; in the series on SV2A [9] (Nucleus accumbens), 7.16 ± 1.13; in the series on SV2A [9] (Occipital cortex), 7.01 ± 0.88. Also, the results for the “BPND, VND method” value in the series with SV2A [9] (Putamen), in the series on SV2A [9] (Temporal cortex) and with SV2A [9] (Thalamus) were 6.00 ± 0.24, 6.57 ± 0.89 and 5.21 ± 0.57, respectively. For the same molecule, the “BPND, VT(CS) method” value in the series on SV2A [9] (Amygdala) came to 0.85 ± 0.34; in the series on SV2A [9] (Anterior cingulate) it was 2.70 ± 0.74; in the series with SV2A [9] (Brainstem), 0.76 ± 0.21; with SV2A [9] (Caudate), 2.40 ± 0.72; in the series with SV2A [9] (Cerebellum), 1.95 ± 0.36; in the series on SV2A [9] (Cingulate cortex) it was 3.17 ± 0.84. The “BPND, VT(CS) method” value in the series on SV2A [9] (Frontal cortex) came out at 3.17 ± 0.84; in the series on SV2A [9] (Globus pallidus) it was 1.10 ± 0.28; in the series on SV2A [9] (Hippocampus), 1.59 ± 0.39; with SV2A [9] (Insular cortex), 3.12 ± 0.81; in the series with SV2A [9] (Nucleus accumbens) it was 3.12 ± 0.81; in the series on SV2A [9] (Occipital cortex), 2.97 ± 0.65. Moreover, the figures for the “BPND, VT(CS) method” value in the series with SV2A [9] (Putamen), in the series on SV2A [9] (Temporal cortex) and in the series on SV2A [9] (Thalamus) were 2.42 ± 0.63, 2.79 ± 0.61 and 2.03 ± 0.62, respectively. Moreover, the K1 is 0.48 ± 0.14 mL/cm^3 per min in the series with SV2A [9] (Amygdala); 0.73 ± 0.20 mL/cm^3 per min in the series with SV2A [9] (Anterior cingulate); 0.89 ± 0.17 mL/cm^3 per min with SV2A [9] (Brainstem); 0.75 ± 0.12 mL/cm^3 per min in the series with SV2A [9] (Caudate); 0.81 ± 0.16 mL/cm^3 per min with SV2A [9] (Cerebellum); 0.66 ± 0.16 mL/cm^3 per min in the series on SV2A [9] (Frontal cortex). In addition, the K1 is reported as 0.65 ± 0.11 mL/cm^3 per min in the series on SV2A [9] (Globus pallidus); 0.61 ± 0.12 mL/cm^3 per min with SV2A [9] (Hippocampus); 0.75 ± 0.17 mL/cm^3 per min with SV2A [9] (Insular cortex); 0.72 ± 0.17 mL/cm^3 per min in the series on SV2A [9] (Mean ± SD over brain regions); 0.77 ± 0.17 mL/cm^3 per min with SV2A [9] (Nucleus accumbens); 0.81 ± 0.21 mL/cm^3 per min in the series on SV2A [9] (Occipital cortex). The K1 with SV2A [9] (Putamen) stood at 1.03 ± 0.19 mL/cm^3 per min; with SV2A [9] (Temporal cortex), 0.66 ± 0.14 mL/cm^3 per min; in the series with SV2A [9] (Thalamus), 0.72 ± 0.24 mL/cm^3 per min. In addition, the “in vivo Kd ratio, Kd(tracer)/Kd([^18F]SDM-16)” value in the series with SV2A [9] (Guo plot of baseline VT) turned out to be 0.38.
In series [3], `Cc1cnccc1CN1C[C@@H](c2cccc([18F])c2)CC1=O` [[^18F]SynVesT-2] had a lipophilicity (logP) of 2.17. For the same molecule, the fraction unbound at 5 min in series [4] came out at 0.41. On SV2A [7], the VND is 2.10 mL/cm^3. The molecule further returned a fraction unbound in series [8] (in vivo) of 0.195.
